Results reported in paper PMC9986244, “Connection between MHC class II binding and aggregation propensity: The antigenic peptide 10 of Paracoccidioides brasiliensis as a benchmark study” (Computational and Structural Biotechnology Journal, 2023).
Entries after “also recorded” stand apart in the source; their conditions may differ.

Legend:
[1] = Transmission electron microscopy (TEM) of aggregates; format: physicochemical; details: peptide in PBS, 18 h, 37 °C; negative staining 2 % uranyl acetate; 20 μM (Fig. 7 legend), 100 µM (method)
Procedure: […] of each peptide suspension (100 µM) was absorbed onto 200-mesh carbon-coated copper grids (Pelco, Ref: 01800 F) for 5 min and then blotted to remove excess material. Negative staining was performed by adding […] of 2 % (w/v) uranyl acetate. Samples were dried on air for 3 min. The grids were imaged with a Jeol 1200 electron microscope (Jeol Ltd.) operating at a 60 kV acceleration voltage.

[2] = In vitro aggregation, Thioflavin-T (ThT) binding; format: physicochemical; details: 20 μM peptide in PBS pH 7.4, 37 °C, 18 h; ThT 50 μM, excitation 450 nm, emission 485 nm; in words, Fig. 6
Procedure: (§1) For in-vitro aggregation assays, P10 and a total of ten selected P10 variants were purchased from Genscript with purity above 95 % and diluted in DMSO (Sigma-Aldrich code D8418) 100 % to a final concentration of 5 mM (stock solution) and kept at −20 °C for storage.
(§2) P10 and its variants stock solutions were diluted in PBS at 20 μM; pH 7.4 at 37 °C for 18 h under agitation. To measure light scattering (LS), samples were excited at 320 nm while emission was collected at 320 nm in the spectrofluorometer Jasco FP8200 (Jasco Corp., Tokyo, Japan). Aliquots of the aggregation suspension were diluted in the presence of Thioflavin-T (Sigma-Aldrich code T3516) (ThT; 50 μM and peptide 20 μM), a specific fluorescent probe for AF. ThT fluorescence emission was measured at 485 nm by exciting the samples at 450 nm. Congo red (Sigma-Aldrich code C6767) binding assays, another amyloid specific probe, were performed according to Palhano [47]. The samples (50 μL) were centrifuged at 17,000 X g for 30 min, and the pellet was incubated with 10 µM Congo red solution for 5 min. The absorbance was measured at 540 and 477 nm and the fraction of bound Congo red was determined by the following formula [mol of bound Congo red/mol of protein = OD540/25,295 – OD477/46,306].

[3] = In vitro aggregation, Congo red (CR) binding; format: physicochemical; details: 20 μM peptide in PBS pH 7.4, 37 °C, 18 h; pellet (17,000 X g, 30 min) with 10 µM Congo red 5 min, absorbance 540 and 477 nm; in words, Fig. 6
Procedure: as §1, §2

[4] = previously shown; cited from earlier work
Text: Since P10 aggregates into AF in vitro, we investigated whether the peptides probed with ProImmune REVEAL® binding assays were able to form amyloid aggregates as well. To address this question, we initially submitted the ten selected sequences of the P10 variants (V1, V3, V5, V6, V7, V10, V11, V14, V15 and V16) to Cordax, an amyloid structure predictor able to model a given structure into steric zippers common to amyloids. For most of these P10 variants, regardless of their SF, at least two types of consensus steric zippers encompassing the sequence ^7(H)TLAIR(Y)^13 were predicted. The exceptio ...

[5] = system: Paracoccidioides brasiliensis; details: immunization, compared with full gp43; cited from earlier work
Text: (§3) In addition to peptide binding affinity, other properties to evaluate are their solubility and aggregation propensity. […] Many proteins and peptides in solution can aggregate into amyloid fibrils (AF), a type of aggregate that can accumulate in organs and tissues causing diseases such as Parkinson’s and Alzheimer’s. This is the case of P10 ([…]), ...

[6] = system: MHC-II alleles; details: cited from earlier work
Text: as §3

[7] = depends on peptide concentration, pH and temperature; cited from earlier work
Text: In addition to peptide binding affinity, other properties to evaluate are their solubility and aggregation propensity. […] Many proteins and peptides in solution can aggregate into amyloid fibrils (AF), a type of aggregate that can accumulate in organs and tissues causing diseases such as Parkinson’s and Alzheimer’s. […] Here, we describe an additional layer of information that could be used to predict good and poor epitope-binders to MHC-II, which is its aggregation propensity. According to the Aggregation hypothesis of antigen selection as enunciated by Forsdyke, [54], homoaggregation of antigen ...

[8] = In vitro aggregation, light scattering (LS); format: physicochemical; details: 20 μM peptide in PBS pH 7.4 from 5 mM DMSO stock, 37 °C, 18 h under agitation; excitation and emission 320 nm; in words, Fig. 6
Procedure: as §1, §2

Sequence | Morphology of aggregates by TEM [1] | Thioflavin T (ThT) binding [2] | Congo red (CR) binding [3] | Regions able to form steric zippers [4] | Protection of mice against Pb infection [5] | Binding to a set of MHC-II alleles [6] | Aggregation in solution [7] | Light scattering (LS) [8]
QGLKAIHTLAIRYAN [Peptide V10] | formed mature amyloid fibrils | did not bind ThT | bind CR | – | – | – | – | –
QTLIAIHTLAIRYAN [Peptide P10] | – | – | – | ^2TLIAIH^7, ^3LIAIHT^8, ^4IAIHTL^9, ^7HTLAIR^12 and ^8TLAIRY^13 | protecting mice against Pb infection as effectively as using the full gp43 | nanomolar | aggregate into insoluble AF; also recorded: more prominent at neutral pH than at acidic pH | –
QTLLDIHTLAIRYAN [Peptide V1] | amyloid fibrils were observed | behaved like P10 | behaved like P10 | – | – | – | – | behaved like P10
QTLTAIHTLAIRYAN [Peptide V6] | formed mature amyloid fibrils | did not bind ThT | bind CR | – | – | – | – | –
QTYHAIHTLAIRYAN [Peptide V14] | ribbon-like appearance | – | – | – | – | – | – | –
